The record followed here is ChEMBL document CHEMBL5321209, “Design, synthesis of novel benzimidazole derivatives as ENL inhibitors suppressing leukemia cells viability via downregulating the expression of MYC” (Eur J Med Chem, 2023).

For series [1], the target named is T1, Protein ENL (Homo sapiens) (UniProt Q03111).
T1 sequence (whole entry): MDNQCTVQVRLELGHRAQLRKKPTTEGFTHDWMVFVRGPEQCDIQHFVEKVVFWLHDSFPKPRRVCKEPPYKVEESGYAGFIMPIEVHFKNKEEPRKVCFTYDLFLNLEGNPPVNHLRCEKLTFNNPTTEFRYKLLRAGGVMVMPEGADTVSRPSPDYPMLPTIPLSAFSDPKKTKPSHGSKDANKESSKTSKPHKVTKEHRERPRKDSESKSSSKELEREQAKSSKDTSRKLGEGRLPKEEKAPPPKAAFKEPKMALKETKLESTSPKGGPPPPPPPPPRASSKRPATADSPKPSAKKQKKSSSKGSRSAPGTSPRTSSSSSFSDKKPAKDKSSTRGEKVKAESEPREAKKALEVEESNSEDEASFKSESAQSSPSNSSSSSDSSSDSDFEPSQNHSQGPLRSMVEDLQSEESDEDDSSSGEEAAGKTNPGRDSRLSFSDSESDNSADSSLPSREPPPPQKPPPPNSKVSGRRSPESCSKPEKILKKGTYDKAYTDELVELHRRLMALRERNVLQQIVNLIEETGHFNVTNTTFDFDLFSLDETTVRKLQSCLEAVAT
The note with it: dose 111.0 nM, time 45.0 min.

In series [2] the target is T2, Protein ENL (Homo sapiens, UniProt Q03111).
T2 sequence (Q03111 whole entry): T1 sequence (whole entry)
Kind of series: Inhibition of C-terminal 6xHis-tagged ENL YEATS domain (1 to 148 residues) (unknown origin) expressed in Escherichia coli BL21(DE3) cells using biotin-H3K27ace as substrate incubated for 45 mins by alpha screen assay. (Bead proximity is the source of the signal in Alpha formats.)

Series [3] has as its target T1, Protein ENL (Homo sapiens). Particulars: dose 333.0 nM, time 45.0 min.
Series [4] has as its system MV4-11. Kind of series: cells. The note with it: Homo sapiens, MV4-11, 72 h.
Description: Antiproliferative activity against human MV4-11 cells assessed as inhibition of cell growth measured after 72 hrs by Cell Titer-Glo luminescent assay
Series [5] deals with MOLM-13. Nature of the series: Antiproliferative activity against human MOLM-13 cells assessed as inhibition of cell growth measured after 72 hrs by Cell Titer-Glo luminescent assay. Format: functional, cell-based. Particulars: MOLM-13, 72 h.
The target of series [6] is T1, Protein ENL (Homo sapiens). Particulars: dose 25.0 µM.
The target of series [7] is T1, Protein ENL (Homo sapiens). Particulars: dose 6.3 µM.
Description: Binding affinity to C-terminal 6xHis-tagged ENL YEATS domain (1 to 148 residues) (unknown origin) expressed in Escherichia coli BL21(DE3) cells assessed as thermal stability by measuring change in melting temperature at 6.3 uM by SYPRO dye-based thermal shift assay
Series [8] deals with T1, Protein ENL (Homo sapiens). Particulars: dose 50.0 µM.
Series [9] deals with MOLM-13. Kind of series: Potency index, ratio of SGC-iMLLT IC50 to test compound IC50 for antiproliferative activity against human MOLM-13 cells. Format: functional.
Series [10] has as its target T1, Protein ENL (Homo sapiens). Particulars: dose 12.5 µM.
Description: Binding affinity to C-terminal 6xHis-tagged ENL YEATS domain (1 to 148 residues) (unknown origin) expressed in Escherichia coli BL21(DE3) cells assessed as thermal stability by measuring change in melting temperature at 12.5 uM by SYPRO dye-based thermal shift assay
Series [11] concerns the target T2, Protein ENL. Nature of the series: Inhibition of recombinantC-terminal 6xHis-tagged ENL YEATS domain (1 to 148 residues) (unknown origin) expressed in Escherichia coli BL21(DE3) cells using H3(13-32)K27cr as substrate by FRET assay.
For series [12], the target named is T2, Protein ENL. Nature of the series: Binding affinity toC-terminal 6xHis-tagged ENL YEATS domain (1 to 148 residues) (unknown origin) assessed as dissociation constant by BLI assay.
For series [13], the target named is T2, Protein ENL. Kind of series: Binding affinity to ENL YEATS domain (unknown origin) assessed as dissociation constant by ITC assay. On the technique in general: ITC needs no label: the signal is the heat of the interaction.
The target in series [14] is T2, Protein ENL. Nature of the series: Binding affinity to C-terminal ENL YEATS domain (unknown origin) (M1 to A148 residues) assessed as dissociation constant by ITC assay.
Series [15] has as its target T2, Protein ENL. Nature of the series: Inhibition of C-terminal ENL YEATS domain (unknown origin) (M1 to A148 residues) using biotinylated peptide as substrate by alpha screen assay.
Series [16] can be described thus: Tmax in BALB/c mouse at 30 mg/kg, po measured after 0.5 to 24 hrs by LC-MS/MS assay. The format is ADME, organism-based. Particulars: in vivo, time 0.5-24 hrs.
Series [17] can be described thus: MRT (0 to infinity) in BALB/c mouse at 30 mg/kg, po measured after 0.5 to 24 hrs by LC-MS/MS assay. Format: ADME, organism-based. The note with it: in vivo, time 0.5-24 hrs.
Series [18] can be described thus: AUC (0 to t) in BALB/c mouse at 30 mg/kg, po measured after 0.5 to 24 hrs by LC-MS/MS assay. Particulars: in vivo. The format is ADME, organism-based. Also on record: dose 30 mg/kg, time 0.5-24 hrs, route po.
A short description of series [19]: Half life in BALB/c mouse at 30 mg/kg, po measured after 0.5 to 24 hrs by LC-MS/MS assay. The format is ADME, organism-based. The note with it: in vivo, time 0.5-24 hrs.
Series [20] is described as follows: AUC (0 to infinity) in BALB/c mouse at 30 mg/kg, po measured after 0.5 to 24 hrs by LC-MS/MS assay. Format: ADME, organism-based. Set-up: time lower 0.5 hrs, dose 30 mg/kg, time upper 24 hrs, route po. The note with it: in vivo.
Series [21] in a line: Cmax in BALB/c mouse at 30 mg/kg, po measured after 0.5 to 24 hrs by LC-MS/MS assay. Format: ADME, organism-based. Also on record: dose 30 mg/kg, time 0.5-24 hrs, route po. The note with it: in vivo.

For orientation: inhibition means the percentage by which the read-out fell short of the control. A higher inhibition goes with a strong effect. Usually IC50 stands for the concentration needed to halve the response being measured. In the case of `C[C@H]1CCCN1Cc1nc2cc(NC(=O)c3ccc4nn(CCN)cc4c3)ccc2[nH]1`, the inhibition in series [1] was determined as 84.1%; in series [3] it was 98.4%. The compound further showed an IC50 in [2] of 0.0172 µM.
The like results for `CCn1cc2cc(C(=O)Nc3ccc4[nH]c(CN5CCC[C@@H]5C)nc4c3)ccc2n1` were, in that order, 82.4%, 99.7% and 0.0367 µM.
On to `C[C@H]1CCCN1Cc1nc2cc(NC(=O)N3C(CO)C(O)C(O)C3CO)ccc2[nH]1` (stereo partly drawn), for which the IC50 in series [4] is greater than 100 µM; in series [2], 0.022 µM; in series [5], greater than 100 µM. Besides, the inhibition worked out at 79.5% in series [1] and 98.5% in [3].
As for `Cc1cccc2c(=O)n(C)c3ccc(C(=O)Nc4ccc5[nH]c(CN6CCC[C@@H]6C)nc5c4)cc3c12`, the inhibition in series [1] is 63.2%; in series [3], 95.6%. The compound further returned an IC50 in series [2] of 0.0464 µM.
For `C[C@H]1CCCN1Cc1nc2cc(NC(=O)c3ccc4c5ccccc5n(C)c4c3)ccc2[nH]1`, the inhibition worked out at 85.4% in [1] and 96.5% in series [3]. Moreover, in [2], inhibition was half-maximal at 0.0722 µM (IC50).
The like results for `C[C@H]1CCCN1Cc1nc2cc(NC(=O)c3ccc4nn(C5CCCC5)cc4c3)ccc2[nH]1` were, in that order, 51%, 96.1% and 0.0702 µM.
The matching figures for `CCCCn1cc2cc(C(=O)Nc3ccc4[nH]c(CN5CCC[C@@H]5C)nc4c3)ccc2n1`: 98.4%, 100% and 0.0353 µM.
A word on the ΔTm: it is the change in melting temperature against a reference sample. `Cc1noc2cc(C(=O)Nc3ccc4[nH]c(CN5CCC[C@@H]5C)nc4c3)ccc12`: the thermal shift (ΔTm) is 3.9 °C in series [6], 1.8 °C in series [7], 4.9 °C in [8] and 2.8 °C in series [10]. The half-inhibitory concentration (IC50) worked out at 51.4 µM in series [4], 0.0107 µM in series [2] and 37.9 µM in series [5]. The inhibition was found to be 99.1% in series [1] and 99.9% in series [3]. Further, the “Ratio IC50” value in [9] stood at 2.
For `C[C@H]1CCCN1Cc1nc2cc(NC(=O)c3ccc4c5ccccc5c(=O)n(C)c4c3)ccc2[nH]1`, the figures for the inhibition in series [1] and in series [3] were 99.2% and 100%, respectively. In addition, half-maximal inhibition in series [2] (IC50) required 0.0318 µM.
The like results for `C[C@H]1CCCN1Cc1nc2cc(NC(=O)c3ccc4c(cnn4CCNC(=O)c4ccccc4)c3)ccc2[nH]1` were, in that order, 86.2%, 99% and 0.0192 µM.
Consider `C[C@H]1CCCN1Cc1nc2cc(NC(=O)c3ccc4c(cnn4CCN4CC5OC(C)(C)OC5C4C4COC(C)(C)O4)c3)ccc2[nH]1` (stereo partly drawn), for which the results for the inhibition in [1] and in series [3] were 89% and 99.6%, respectively. In addition, inhibition in series [2] was half-maximal at 0.0564 µM (IC50).
For `C[C@H]1CCCN1Cc1nc2cc(NC(=O)c3ccc4c(cnn4CCN)c3)ccc2[nH]1`, the inhibition in series [1] and in [3] was 100% throughout. The half-inhibitory concentration (IC50) in [2] is 0.0282 µM.
For orientation: Kd means the concentration at which binding is half-saturated. Take `O=C(/C=C/c1ccc(-n2ccnc2)cc1)N1CCN(C(=O)c2ccco2)CC1`: in series [11], the 50% inhibitory concentration (IC50) is 19 µM. In addition, in series [12], the equilibrium dissociation constant (Kd) is 14 µM.
In the case of `C[C@H]1CCCN1Cc1nc2cc(NC(=O)c3ccc4c(c3)c3cc(F)ccc3c(=O)n4C)ccc2[nH]1`, the results for the inhibition in [1] and in [3] were 90.8% and 99.2%, respectively. For the same compound, the IC50 in [2] is 0.0221 µM.
The matching figures for `Cc1ccccc1C(=O)NCCn1ncc2cc(C(=O)Nc3ccc4[nH]c(CN5CCC[C@@H]5C)nc4c3)ccc21`: 68.4%, 96.1% and 0.0354 µM.
`C[C@H]1CCCN1Cc1nc2cc(NC(=O)c3ccc4c(cnn4CCN4CCOCC4)c3)ccc2[nH]1`: the ΔTm is 2 °C in [6], 0.8 °C in [7], 3.5 °C in series [8] and 1.3 °C in series [10]. For the same compound, the values for the inhibition in series [1] and in series [3] were 98.3% and 99.9%, respectively. Also, the “Ratio IC50” value in series [9] is 2. Further, the values for the half-maximal inhibitory concentration (IC50) in [2] and in [5] were 0.0145 µM and 39.6 µM, respectively.
Turning to `CCn1ncc2cc(C(=O)Nc3ccc4[nH]c(CN5CCC[C@@H]5C)nc4c3)ccc21`, the inhibition in series [1] came to 98.3%; in [3] it was 100%. Also, in [2], the IC50 turned out to be 0.0189 µM.
The matching figures for `C[C@H]1CCCN1Cc1nc2cc(NC(=O)c3ccc4nn(C)cc4c3)ccc2[nH]1`: 86.8%, 99.6% and 0.077 µM.
Regarding `C[C@@H]1NC(=O)[C@H]([C@H](C)O)NC(=O)[C@@H](NC(=O)OCc2ccccc2)CCCCNC(=N)NCCC[C@H](C(=O)N[C@@H](CCCCNC(=O)c2cnco2)C(N)=O)NC1=O`, the Kd in [13] came to 14.1 µM.
With `COC(=O)c1ccc(C(=O)Nc2ccc3[nH]c(CN4CCCCC4)nc3c2)cc1`, the Kd in series [14] is 0.754 µM. This compound also yielded an IC50 in series [15] of 1.6 µM.
As to `Cc1nnc2ccc(C(=O)Nc3ccc4[nH]c(CN5CCC[C@@H]5C)nc4c3)cn12`, the inhibition in series [1] came out at 57%; in series [3] it was 84.5%. For the same compound, 0.267 µM corresponded to half-maximal inhibition in series [2] (IC50).
The matching figures for `Cc1noc2ccc(C(=O)Nc3ccc4[nH]c(CN5CCC[C@@H]5C)nc4c3)cc12`: 87.3%, 99.3% and 0.0488 µM.
`CCCCn1ncc2cc(C(=O)Nc3ccc4[nH]c(CN5CCC[C@@H]5C)nc4c3)ccc21`: the inhibition was found to be 98% in [1] and 100% in [3]. Besides, the IC50 in series [2] is 0.017 µM.
The like results for `C[C@H]1CCCN1Cc1nc2cc(NC(=O)c3ccc4c(cnn4CCNC(=O)Nc4cccc(F)c4)c3)ccc2[nH]1` were, in that order, 67.6%, 97.8% and 0.046 µM.
A word on the Tmax: it is the time from dosing to the highest level. The MRT inf is a mean duration of stay, worked out from the concentration-time curve. By AUC(0-t) is commonly meant exposure summed from dosing to a finite time, without extrapolation to infinity. Low readings indicate low exposure, high ones high exposure. Usually half-life stands for the time in which the quantity being followed falls by half. A low value points to rapid decline. In general, AUC(0-inf) refers to total exposure, with the tail of the curve extrapolated. Low readings indicate low exposure, high ones high exposure. Broadly, the Cmax is the peak of the concentration-time curve. Consider `C[C@H]1CCCN1Cc1nc2cc(NC(=O)c3ccc4c(cnn4C)c3)ccc2[nH]1`, for which the ΔTm is 3.1 °C in series [6], 1.4 °C in [7], 4.3 °C in series [8] and 2.2 °C in series [10]. Also, the figures for the IC50 in [4] and in [5] were 35 µM and 74.7 µM, respectively. The inhibition came out at 99.8% in series [1] and 99.7% in series [3]. The Tmax in series [16] stood at 30 min. The MRT inf in series [17] was 60 min. In addition, in series [18], the AUC(0-t) was 0.0598 µg·h/mL. Moreover, the half-life in [19] is 30 min. For the same compound, in [20], the AUC(0-inf) stood at 0.061 µg·h/mL. The compound also had a Cmax in series [21] of 0.0336 µg/mL.
Regarding `C[C@H]1CCCN1Cc1nc2cc(NC(=O)c3ccc4c(cnn4CCN4CC(O)C(O)C4C(O)CO)c3)ccc2[nH]1` (stereo partly drawn), the inhibition was found to be 84.6% in series [1] and 99.3% in series [3]. In [2], this compound returned an IC50 of 0.0323 µM.
The like results for `C[C@H]1CCCN1Cc1nc2cc(NC(=O)c3ccc4nn(CCNC(=O)OC(C)(C)C)cc4c3)ccc2[nH]1` were, in that order, 56%, 99.1% and 0.0379 µM.
